Consider one compound from PMC6331819, “Identification of N-Acetyldopamine Dimers from the Dung Beetle Catharsius molossus and Their COX-1 and COX-2 Inhibitory Activities” (Molecules, 2015).

In one assay the target is T1, COX-2 (Homo sapiens, UniProt P35354).
T1 construct: gene PTGS2
T1 sequence (P35354 18-604): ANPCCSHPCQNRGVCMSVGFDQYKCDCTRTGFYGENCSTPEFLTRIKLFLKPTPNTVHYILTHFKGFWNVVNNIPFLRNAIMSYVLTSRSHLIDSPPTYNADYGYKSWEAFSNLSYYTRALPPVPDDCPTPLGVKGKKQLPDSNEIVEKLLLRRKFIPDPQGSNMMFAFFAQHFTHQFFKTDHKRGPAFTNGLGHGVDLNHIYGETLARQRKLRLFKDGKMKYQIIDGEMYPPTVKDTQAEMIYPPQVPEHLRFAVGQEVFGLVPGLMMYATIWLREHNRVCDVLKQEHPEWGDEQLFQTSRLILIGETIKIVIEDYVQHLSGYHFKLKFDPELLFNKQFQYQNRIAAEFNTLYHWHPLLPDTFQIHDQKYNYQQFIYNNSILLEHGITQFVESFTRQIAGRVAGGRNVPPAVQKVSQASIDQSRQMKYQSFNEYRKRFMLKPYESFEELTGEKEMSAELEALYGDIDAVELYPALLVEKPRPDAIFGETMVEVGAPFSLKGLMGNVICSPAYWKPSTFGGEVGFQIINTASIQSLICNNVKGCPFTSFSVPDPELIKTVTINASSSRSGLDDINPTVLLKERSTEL
The experiment in a line: Cayman COX Fluorescent Inhibitor Screening Assay Kit. Format: biochemical.

Another assay concerns the target T2, COX-1 (Ovis aries, UniProt P05979).
T2 construct: gene PTGS1
The assay is described as above. Format: biochemical.

T2 sequence (P05979 25-600): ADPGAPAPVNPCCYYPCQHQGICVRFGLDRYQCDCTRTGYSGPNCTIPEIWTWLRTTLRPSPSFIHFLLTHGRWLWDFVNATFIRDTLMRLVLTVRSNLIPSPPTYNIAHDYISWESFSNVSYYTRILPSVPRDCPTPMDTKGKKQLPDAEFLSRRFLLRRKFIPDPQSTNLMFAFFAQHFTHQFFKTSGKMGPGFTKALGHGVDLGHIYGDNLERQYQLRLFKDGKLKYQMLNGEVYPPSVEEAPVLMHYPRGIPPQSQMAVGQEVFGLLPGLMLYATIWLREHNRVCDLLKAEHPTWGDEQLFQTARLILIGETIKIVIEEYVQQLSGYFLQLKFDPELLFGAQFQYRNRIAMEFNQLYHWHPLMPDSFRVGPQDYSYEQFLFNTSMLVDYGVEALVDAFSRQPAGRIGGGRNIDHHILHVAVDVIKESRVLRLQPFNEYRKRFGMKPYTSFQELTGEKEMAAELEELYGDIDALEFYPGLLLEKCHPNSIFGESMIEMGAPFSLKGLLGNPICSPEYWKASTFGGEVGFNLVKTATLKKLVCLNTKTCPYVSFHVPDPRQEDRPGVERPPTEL

For orientation: IC50 means the concentration at which inhibition is half-maximal. A low value points to greater potency. As to `CC(=O)N/C=C/c1ccc2c(c1)O[C@H](c1ccc(O)c(O)c1)[C@H](NC(C)=O)O2` (racemic) [compound 4, cis-2-(3′,4′-dihydroxyphenyl)-3-acetylamino-7-(N-acetyl-2″-amino-ethylene)-1,4-benzodioxane], the values for the IC50 on COX-2 and against COX-1 were 6.43 µM and 78.8 µM, respectively.
